T/C data for 19 compounds are collected here from PubChem BioAssay AID256 (DTP/NCI, 2004).

Inconclusive results and toxic doses are left out.

The subject of the assay is CD2F1 mice, L1210 leukemia ip, survival T/C. The assay can be described thus: NCI In Vivo Anticancer Drug Screen. Data for tumor model L1210 Leukemia (intraperitoneal) in CD2F1 (CDF1) mice. As to conditions: higher = longer survival. A digest of the protocol:
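Compound-dosed mice with transplantable tumor versus matched vehicle controls; endpoint ratio T/C reported.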

[1] abbreviates: endpoint: mean survival time, dose: 100.0 mg/kg/injection, schedule: Q01DX009 (ip), vehicle: other.
The mark [2] stands for this setting: endpoint: mean survival time, dose: 200.0 mg/kg/injection, schedule: Q01DX009 (ip), vehicle: other.
Where [3] appears, read: endpoint: mean survival time, dose: 100.0 mg/kg/injection, schedule: Q01DX009 (ip), vehicle: saline with Tween-80.
The mark [4] stands for this setting: endpoint: mean survival time, dose: 200.0 mg/kg/injection, schedule: Q01DX009 (ip), vehicle: saline with Tween-80.
Setting [5] is: endpoint: mean survival time, dose: 400.0 mg/kg/injection, schedule: Q01DX009 (ip), vehicle: saline with Tween-80.
Where [6] appears, read: endpoint: mean survival time, dose: 100.0 mg/kg/injection, schedule: Q04DX003 (ip), vehicle: saline with Tween-80.
[7] abbreviates: endpoint: mean survival time, dose: 200.0 mg/kg/injection, schedule: Q04DX003 (ip), vehicle: saline with Tween-80.
Where [8] appears, read: endpoint: mean survival time, dose: 400.0 mg/kg/injection, schedule: Q04DX003 (ip), vehicle: saline with Tween-80.

On to `CCSCCNC1=C(C)C(=O)C2=C(C1=O)[C@H](COC(N)=O)[C@]1(OC)[C@@H]3N[C@@H]3CN21`, for which the T/C was 121 % of control (endpoint: mean survival time, dose: 6.0 mg/kg/injection, schedule: Q01DX001 (ip), vehicle: distilled water + Tween-80) and 155 % of control (endpoint: mean survival time, dose: 24.0 mg/kg/injection, schedule: Q01DX001 (ip), vehicle: distilled water + Tween-80).

`COc1ccc(C2OC23CC(C)(C)c2ccccc2C3=O)cc1` (stereo not drawn): the T/C runs as follows: under setting [1], 107 % of control; under setting [2], 100 % of control; (endpoint: mean survival time, dose: 400.0 mg/kg/injection, schedule: Q01DX009 (ip), vehicle: other) 91 % of control.

Regarding `COc1cc(OC)c(NC(=O)OCCOc2ccc([N+](=O)[O-])cc2)cc1Cl`, the T/C is, setting by setting: (endpoint: mean survival time, dose: 50.0 mg/kg/injection, schedule: Q01DX009 (ip), vehicle: saline with Tween-80) 90 % of control; under setting [3], 86 % of control; under setting [4], 97 % of control.

As for `O=c1[nH]cnc2nc(C3OC(CO)C(O)C3O)[nH]c12` (stereo not drawn), the T/C is 102 % of control (endpoint: median survival time, dose: 4.5 mg/kg/injection, schedule: Q01DX005 (ip), vehicle: distilled water + Tween-80); 106 % of control (endpoint: median survival time, dose: 9.0 mg/kg/injection, schedule: Q01DX005 (ip), vehicle: distilled water + Tween-80); 98 % of control (endpoint: median survival time, dose: 18.0 mg/kg/injection, schedule: Q01DX005 (ip), vehicle: distilled water + Tween-80); 100 % of control (endpoint: median survival time, dose: 36.0 mg/kg/injection, schedule: Q01DX005 (ip), vehicle: distilled water + Tween-80); 107 % of control (endpoint: median survival time, dose: 72.0 mg/kg/injection, schedule: Q01DX005 (ip), vehicle: distilled water + Tween-80).

In the case of `CCC(=O)C(=O)c1ccccc1`, the T/C is, setting by setting: (endpoint: mean survival time, dose: 100.0 mg/kg/injection, schedule: Q01DX001 (ip), vehicle: saline) 101 % of control; (endpoint: mean survival time, dose: 200.0 mg/kg/injection, schedule: Q01DX001 (ip), vehicle: saline) 98 % of control; (endpoint: mean survival time, dose: 400.0 mg/kg/injection, schedule: Q01DX001 (ip), vehicle: saline) 101 % of control.

For the compound `COc1cc([N+](=O)[O-])ccc1NC(=O)Oc1ccccc1F`, the T/C was 109 % of control under setting [3], 109 % of control under setting [4] and 108 % of control under setting [5].

Regarding `C=CCNc1n[nH]c(=S)s1`, the T/C reads like this: under setting [6], 100 % of control; under setting [7], 96 % of control; under setting [8], 105 % of control.

On to `CCOC(=O)c1c(C)nc(C)c(C(=O)OCC)c1-c1cccc([N+](=O)[O-])c1`, for which the T/C by setting is: (endpoint: mean survival time, dose: 50.0 mg/kg/injection, schedule: Q04DX003 (ip), vehicle: saline with Tween-80) 97 % of control; under setting [6], 105 % of control; under setting [7], 103 % of control.

As to `O=C(CI)NCc1cn(C2CC(O)C(CO)O2)c(=O)[nH]c1=O` (stereo not drawn), the T/C (endpoint: mean survival time, dose: 4.0 mg/kg/injection, schedule: Q01DX005 (ip), vehicle: water) is 106 % of control; the T/C (endpoint: mean survival time, dose: 8.0 mg/kg/injection, schedule: Q01DX005 (ip), vehicle: water) is 114 % of control; the T/C (endpoint: mean survival time, dose: 16.0 mg/kg/injection, schedule: Q01DX005 (ip), vehicle: water) was 106 % of control; the T/C (endpoint: mean survival time, dose: 32.0 mg/kg/injection, schedule: Q01DX005 (ip), vehicle: water) was 111 % of control; the T/C (endpoint: mean survival time, dose: 64.0 mg/kg/injection, schedule: Q01DX005 (ip), vehicle: water) is 114 % of control.

Turning to `CC1(C)OC2C(CF)OC(n3cc(Br)c(=O)[nH]c3=O)C2O1` (stereo not drawn), the T/C (endpoint: median survival time, dose: 12.5 mg/kg/injection, schedule: Q01DX005 (ip), vehicle: distilled water + Tween-80) is 98 % of control; the T/C (endpoint: median survival time, dose: 25.0 mg/kg/injection, schedule: Q01DX005 (ip), vehicle: distilled water + Tween-80) was 94 % of control; the T/C (endpoint: median survival time, dose: 50.0 mg/kg/injection, schedule: Q01DX005 (ip), vehicle: distilled water + Tween-80) is 101 % of control; the T/C (endpoint: median survival time, dose: 100.0 mg/kg/injection, schedule: Q01DX005 (ip), vehicle: distilled water + Tween-80) is 103 % of control; the T/C (endpoint: median survival time, dose: 200.0 mg/kg/injection, schedule: Q01DX005 (ip), vehicle: distilled water + Tween-80) is 88 % of control.

For `O=C(COc1ccc(Cl)c(Cl)c1)NCc1cccc(Cl)c1`, the T/C reads like this: under setting [6], 95 % of control; under setting [7], 93 % of control; under setting [8], 95 % of control.

Take `Nc1cccc2nc3ccccc3cc12`: the T/C reads like this: under setting [3], 93 % of control; under setting [6], 92 % of control; under setting [4], 95 % of control; under setting [7], 94 % of control; under setting [8], 91 % of control.

In the case of `Oc1ccc(C(c2ccccc2)(c2ccccc2)c2ccccc2)cc1`, the T/C by setting is: under setting [3], 94 % of control; under setting [4], 89 % of control; under setting [5], 91 % of control.

With `COc1ccccc1NC(=O)c1ccccc1`, the T/C under setting [3] is 98 % of control, the T/C under setting [4] was 114 % of control and the T/C under setting [5] is 104 % of control.

`Cc1ccc(S(=O)(=O)SCc2ccccc2)cc1`: the T/C is 107 % of control under setting [1] and 96 % of control under setting [2].

`CCC1(CC)COC(C)(C(=O)O)OC1`: the T/C reads like this: (endpoint: mean survival time, dose: 100.0 mg/kg/injection, schedule: Q04DX003 (ip), vehicle: saline) 111 % of control; (endpoint: mean survival time, dose: 200.0 mg/kg/injection, schedule: Q04DX003 (ip), vehicle: saline) 96 % of control; (endpoint: mean survival time, dose: 400.0 mg/kg/injection, schedule: Q04DX003 (ip), vehicle: saline) 100 % of control.

With `CCN(C(=O)Nc1ccccc1Cl)c1ccccc1`, the T/C runs as follows: (endpoint: mean survival time, dose: 75.0 mg/kg/injection, schedule: Q04DX003 (ip), vehicle: saline with Tween-80) 102 % of control; (endpoint: mean survival time, dose: 150.0 mg/kg/injection, schedule: Q04DX003 (ip), vehicle: saline with Tween-80) 101 % of control; (endpoint: mean survival time, dose: 300.0 mg/kg/injection, schedule: Q04DX003 (ip), vehicle: saline with Tween-80) 98 % of control.

Turning to `NCC[Se][Se]CCN`, the T/C runs as follows: (endpoint: median survival time, dose: 1.56 mg/kg/injection, schedule: Q01DX009 (ip), vehicle: suspension in saline) 98 % of control; (endpoint: median survival time, dose: 3.13 mg/kg/injection, schedule: Q01DX009 (ip), vehicle: suspension in saline) 105 % of control; (endpoint: median survival time, dose: 6.25 mg/kg/injection, schedule: Q01DX009 (ip), vehicle: suspension in saline) 108 % of control.

Consider `CC(CO)CC/C(=N\O)C(C)C1/C(=N/O)CC2C=C3CC(O)CCC3(C)CC21C` (stereo not drawn), for which the T/C is, setting by setting: under setting [6], 92 % of control; under setting [7], 92 % of control; under setting [8], 87 % of control.
